How the values were obtained:
DOHH2 cells = assay: DOHH2 Long Term Phenotypic Assay (7 days, Cell Titer-Glo viability); format: cell-based; details: Cell Titer-Glo 2.0
Procedure: DOHH2 cells were kindly provided by Michael Green (MDACC). The cells were routinely maintained in RPMI-1640 Medium (ATCC, Catalog #30-2001) supplemented with 10% fetal bovine serum (Sigma, Catalog #F2442), 100 units/mL penicillin and 100 μg/mL streptomycin (Gibco, Catalog #15140-122) in a humidified incubator (37° C., 5% CO2). Cells were seeded onto a white, CulturPlate-384 (Perkin Elmer, catalog #6007680) at a density of 250 cells per well in a volume of 50 μL. Stock solutions of the test compounds were prepared in 100% DMSO (Sigma, Catalog #D2650) and serially diluted 1:3 using 100% DMSO. Compounds were additionally diluted 1:33 in culture medium, and 10 μL/well was transferred to the tissue culture plate. Following the compound addition, the plate was incubated at 37° C. and 5% CO2 for 7 days. Cells were then mixed and a 30 μL volume was removed. Viability was assessed by a 30 μL addition of Cell Titer-Glo 2.0 (Promega, catalog #G9243). The plate was then shaken on an orbital shaker at 300 RPM for 10 minutes at room temperature, in the dark. Luminescence was measured using a PerkinElmer Envision™ plate reader. IC50 values were calculated using a four-parameter logistic curve fit using Genedata Screener software.

PRMT1 [1] = molecular target: T1, PRMT1 (Homo sapiens, UniProt Q99873); assay: PRMT1 RKO Cellular Target Engagement Assay (In-Cell Western, asymmetric di-methyl arginine); format: cell-based; details: RKO cells, 48 hr compound incubation; read-out: RKO IC50 (PRMT-1 Target Engagement)
Procedure: RKO cells were routinely maintained in EMEM media (ATCC, Catalog #30-2003) supplemented with 10% fetal bovine serum (Sigma, Catalog #F2442) using a humidified incubator (37° C., 5% CO2, and ambient O2).
In preparation for the In-Cell Western assay, cells were harvested and resuspended in EMEM media supplemented with 10% fetal bovine serum. Cells were seeded onto a 384 well, black, clear bottom, Poly-D-Lysine coated tissue culture plate (Greiner, Catalog #781946) at a density of 1,000 cells/well in a volume of 40 μL. The culture plate was incubated for 24 hr at 37° C. with 5% CO2 and ambient O2. Stock solutions of the test compounds were prepared in 100% DMSO (Sigma, Catalog #D2650) and serially diluted 1:3 using 100% DMSO. Compounds were additionally diluted 1:40 in culture medium, and 10 μL/well was transferred to the tissue culture plate. Following the compound addition the microplate was incubated at 37° C. for 48 hr.
The media was removed, the plate was washed with 1× PBS (Fisher Bioreagents, Catalog #BP399-20), and cells were fixed for 10 min using 30 μL/well of 4% paraformaldehyde (Electron Microscopy Sciences, Catalog #15710). The paraformaldehyde was removed, the plate was again washed with 1× PBS, and cells were permeabilized for 15 min using 30 μL/well of 1× PBS containing 0.5% Triton-X 100 (Sigma, Catalog #1001748095). The permeabilization buffer was removed, the plate was washed with 1× PBST (Boston BioProducts, Catalog #IBB-171X), and 50 μL/well of blocking buffer (LI-COR, Catalog #927-40000) was added followed by a 1 hour incubation at room temperature. The blocking buffer was removed, and 20 μL/well of anti-asymmetric di-methyl arginine antibody (Cell Signaling, Catalog #13522S) diluted 1:1000 in LI-COR blocking buffer was added to the plate and incubated overnight, in the dark at 4° C.
The primary antibody was then removed, and the plate was washed three times with 1× PBST. 20 μL/well of CellTag (LI-COR, Catalog #926-41090) and IRDye 800CW goat anti-rabbit IgG antibody (LI-COR, Catalog #926-32211), each diluted 1:500 in LI-COR blocking buffer supplemented with 0.1% Tween-20 (Thermo Scientific, Catalog #85114), were added to the plate. The plate was then incubated in the dark, at room temperature for 1 hour followed by three washes with 1× PBST and one wash with H2O. The IRDye secondary antibody signal (800 channel) and the CellTag signal (700 channel) were measured using a Licor Odyssey Imager, and the 800 channel signal was then normalized to the 700 channel signal. IC50 values were calculated using a four-parameter logistic curve fit using Genedata Screener software.

PRMT1 [2] = molecular target: T1, PRMT1; assay: PRMT1 Enzymatic Assay (LANCE TR-FRET, methylation of histone H4 at Arg3); format: biochemical; design: purchased SignalChem P365-380G; details: PRMT1 1.5 nM, SAM 1 μM, biotinylated histone H4 (1-21) 25 nM; read-out: PRMT-1 IC50
Procedure: In order to measure PRMT1 enzymatic activity the LANCE TR-FRET assay from PerkinElmer was used to follow the methylation of histone H4 at Arg3 using S-adenosyl-L-methionine (SAM) as the methyl group donor.
This enzymatic assay was performed in a 384 well, white, low volume plate (PerkinElmer, Catalog 6008289) with assay buffer consisting of 50 mM Hepes (pH 8) (Teknova, Catalog #H1090), 1 mM TCEP (Sigma, Catalog #C4706), and 0.003% Tween-20 (Thermo, Catalog #85114). Stock solutions of the test compounds were prepared in 100% DMSO (Sigma, Catalog #D2650) and serially diluted 1:3 using 100% DMSO. Compounds were additionally diluted 1:40 in assay buffer, and 2 uL/well were transferred to the assay plate. 4 uL/well (final concentration 1.5 nM) of PRMT1 protein (SignalChem, Catalog #P365-380G) diluted in assay buffer was added to the assay plate followed by a 15 min preincubation at room temperature. 4 uL/well of SAM (Sigma, Catalog #A7007) and biotinylated histone H4 (1-21) (AnaSpec, Catalog #62555) (final concentrations 1 μM and 25 nM, respectively) diluted in assay buffer were then added to the assay plate followed by a 1 hour reaction time. Final concentrations of PRMT1, SAM, and histone H4 (1-21) refer to a […].
Detection of methylated histone H4 (H4R^3me) was achieved by combining LANCE Ultra Europium-anti-H4R^3me antibody (PerkinElmer, Catalog #TRF04-14), LANCE Ultra ULight-anti-streptavidin antibody (PerkinElmer, Catalog #TRF0102), and sinefungin (Sigma, Catalog #S8559) (final concentrations 2 nM, 50 nM, and 100 μM respectively) in 1× LANCE detection buffer (PerkinElmer, Catalog #CR97-100) and adding L/well of the detection solution to the assay plate. Detection reagents were allowed to react for 1 hour at room temperature. Final concentrations in the detection solution refer to a L volume. The europium fluorescence signal and the ULight TR-FRET signal were measured using a BioTek Synergy Neo plate reader: excitation at 330 nm, emission at 620 nm and 665 nm respectively, and the ratio of the two signals (665 nm/620 nm) was used for curve fitting. IC50 values were calculated using a four-parameter logistic curve fit using Genedata Screener software.

T1 sequence (Q99873 whole entry): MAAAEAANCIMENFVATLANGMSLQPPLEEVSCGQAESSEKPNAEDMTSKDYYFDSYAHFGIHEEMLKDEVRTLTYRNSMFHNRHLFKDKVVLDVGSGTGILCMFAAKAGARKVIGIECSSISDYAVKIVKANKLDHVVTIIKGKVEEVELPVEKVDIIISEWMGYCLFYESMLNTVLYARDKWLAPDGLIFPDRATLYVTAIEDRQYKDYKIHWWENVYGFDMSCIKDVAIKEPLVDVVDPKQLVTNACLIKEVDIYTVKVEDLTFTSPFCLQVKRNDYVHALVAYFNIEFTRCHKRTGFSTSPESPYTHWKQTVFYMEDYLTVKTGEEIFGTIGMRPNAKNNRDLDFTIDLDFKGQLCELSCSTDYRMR

Row | SMILES | IC50 (PRMT1 [1]) [µM] | IC50 (PRMT1 [2]) [µM] | IC50 (DOHH2 cells; Homo sapiens, DOHH-2, 168 h) [µM] | IC50 (DOHH2 cells) [µM]
1 | CNCCN(C)Cc1nn2c(c1C1CCC(COC)(COC)CC1)CN(C(=O)C(C)(C)OC)CC2 [Example 69, 1-(3-(4,4-bis(methoxy-methyl)cyclohexyl)-2-((methyl(2-(methylamino)-ethyl)amino)methyl)-6,7-dihydropyrazolo[1,5-a]-pyrazin-5(4H)-yl)-2-methoxy-2-methylpropan-1-one] | 0.43 | 0.32 | 0.474 | 
2 | CNCCN(C)Cc1nn2c(c1C1CCC(COC)(COC)CC1)CN(C(=O)C(C)(C)O)CC2 [Example 71, 1-(3-(4,4-bis(methoxy-methyl)cyclohexyl)-2-((methyl(2-(methylamino)-ethyl)amino)methyl)-6,7-dihydropyrazolo[1,5-a]-pyrazin-5(4H)-yl)-2-hydroxy-2-methylpropan-1-one] | 3.48 | 0.266 | 0.962 | 
3 | CNCCN(C)Cc1nn2c(c1C1CCC(COC)(COC)CC1)CN(C(=O)C(C)COC)CC2 (stereo not drawn) [Example 72, 1-(3-(4,4-bis(methoxy-methyl)cyclohexyl)-2-((methyl(2-(methylamino)-ethyl)amino)methyl)-6,7-dihydropyrazolo[1,5-a]-pyrazin-5(4H)-yl)-3-methoxy-2-methylpropan-1-one] | 0.315 | 0.112 | 0.31 | 
4 | CNCCN(C)Cc1nn2c(c1C1CCC(COC)(COC)CC1)CN(C(=O)C1CC(C)(O)C1)CC2 (stereo not drawn) [Example 75, (3-(4,4-bis(methoxymethyl)-cyclohexyl)-2-((methyl(2-(methylamino)ethyl)amino)-methyl)-6,7-dihydropyrazolo-[1,5-a]pyrazin-5(4H)-yl)(3-hydroxy-3-methylcyclobutyl)methanone] | 5.65 | 0.07 | 1.44 | 
5 | CNCCN(C)Cc1nn2c(c1C1CCC(COC)(COC)CC1)CN(C(=O)C1(C)CCOC1)CC2 (stereo not drawn) [Example 76, (3-(4,4-bis(methoxymethyl)-cyclohexyl)-2-((methyl(2-(methylamino)ethyl)amino)-methyl)-6,7-dihydropyrazolo-[1,5-a]pyrazin-5(4H)-yl)(3-methyltetrahydrofuran-3-yl)-methanone] | 0.363 | 0.086 | 0.094 | 
6 | CNCCN(C)Cc1nn2c(c1C1CCC(COC)(COC)CC1)CN(C(=O)C1CC(C)(C)C1)CC2 [Example 77, (3-(4,4-bis(methoxymethyl)-cyclohexyl)-2-((methyl(2-(methylamino)ethyl)amino)-methyl)-6,7-dihydropyrazolo-[1,5-a]pyrazin-5(4H)-yl)(3,3-dimethylcyclobutyl)-methanone] | 0.254 | 0.084 |  | 0.202
7 | CNCCN(C)Cc1nn2c(c1C1CCC(COC)(COC)CC1)CN(C(=O)C(C)(C)C1CCC1)CC2 [Example 78, 1-(3-(4,4-bis(methoxy-methyl)cyclohexyl)-2-((methyl(2-(methylamino)-ethyl)amino)methyl)-6,7-dihydropyrazolo[1,5-a]-pyrazin-5(4H)-yl)-2-cyclobutyl-2-methylpropan-1-one] | 0.192 | 0.068 | 0.154 | 

The remaining compounds from weak to strong by IC50 (PRMT1 [1]), led by results:

Row | IC50 (PRMT1 [1]) [µM] | IC50 (PRMT1 [2]) [µM] | SMILES | IC50 (DOHH2 cells; Homo sapiens, DOHH-2, 168 h) [µM] | IC50 (DOHH2 cells) [µM]
8 | 0.688 | 0.217 | CNCCN(C)Cc1nn2c(c1C1CCC(COC)(COC)CC1)CN(C(=O)C1CCC(C)(C)O1)CC2 (stereo not drawn) [Example 79, (3-(4,4-bis(methoxymethyl)-cyclohexyl)-2-((methyl(2-(methylamino)ethyl)amino)-methyl)-6,7-dihydropyrazolo-[1,5-a]pyrazin-5(4H)-yl)(5,5-dimethyltetrahydrofuran-2-yl)methanone] | 0.303 | 
9 | 0.47 | 0.118 | CNCCN(C)Cc1nn2c(c1C1CCC(COC)(COC)CC1)CN(C(=O)C1CCOC1(C)C)CC2 (stereo not drawn) [Example 73, (3-(4,4-bis(methoxymethyl)-cyclohexyl)-2-((methyl(2-(methylamino)ethyl)amino)-methyl)-6,7-dihydropyrazolo-[1,5-a]pyrazin-5(4H)-yl)(2,2-dimethyltetrahydrofuran-3-yl)methanone] | 0.575 | 
10 | 0.367 | 0.133 | CNCCN(C)Cc1nn2c(c1C1CCC(COC)(COC)CC1)CN(C(=O)C1CCC1(F)F)CC2 (stereo not drawn) [Example 81, (3-(4,4-bis(methoxymethyl)-cyclohexyl)-2-((methyl(2-(methylamino)ethyl)amino)-methyl)-6,7-dihydropyrazolo-[1,5-a]pyrazin-5(4H)-yl)(2,2-difluorocyclobutyl)-methanone] | 0.296 | 
11 | 0.26 | 0.044 | COCC1(COC)CCC(c2c(CN(C)CCN)nn3c2CN(C(=O)C(C)(C)C(F)(F)F)CC3)CC1 [Example 70, 1-(2-(((2-aminoethyl)-(methyl)amino)methyl)-3-(4,4-bis(methoxymethyl)-cyclohexyl)-6,7-dihydro-pyrazolo[1,5-a]pyrazin-5(4H)-yl)-3,3,3-trifluoro-2,2-dimethylpropan-1-one] | 0.195 | 
